Among the data in the Kinase Knowledgebase extract (Sharma et al. 2016) are IC50 values, retold here.

A value given as a limit tells only on which side of the number the result lay.

This assay has as its target PIK3CA (human) (UniProt P42336). Kind of assay: Assessment of PIK3CA Kinase Activity.

What is called IC50 is the concentration that gives 50% inhibition. Lower therefore signals inhibition by little substance.

Chain of PIK3CA (human) (P42336 whole entry, looked up): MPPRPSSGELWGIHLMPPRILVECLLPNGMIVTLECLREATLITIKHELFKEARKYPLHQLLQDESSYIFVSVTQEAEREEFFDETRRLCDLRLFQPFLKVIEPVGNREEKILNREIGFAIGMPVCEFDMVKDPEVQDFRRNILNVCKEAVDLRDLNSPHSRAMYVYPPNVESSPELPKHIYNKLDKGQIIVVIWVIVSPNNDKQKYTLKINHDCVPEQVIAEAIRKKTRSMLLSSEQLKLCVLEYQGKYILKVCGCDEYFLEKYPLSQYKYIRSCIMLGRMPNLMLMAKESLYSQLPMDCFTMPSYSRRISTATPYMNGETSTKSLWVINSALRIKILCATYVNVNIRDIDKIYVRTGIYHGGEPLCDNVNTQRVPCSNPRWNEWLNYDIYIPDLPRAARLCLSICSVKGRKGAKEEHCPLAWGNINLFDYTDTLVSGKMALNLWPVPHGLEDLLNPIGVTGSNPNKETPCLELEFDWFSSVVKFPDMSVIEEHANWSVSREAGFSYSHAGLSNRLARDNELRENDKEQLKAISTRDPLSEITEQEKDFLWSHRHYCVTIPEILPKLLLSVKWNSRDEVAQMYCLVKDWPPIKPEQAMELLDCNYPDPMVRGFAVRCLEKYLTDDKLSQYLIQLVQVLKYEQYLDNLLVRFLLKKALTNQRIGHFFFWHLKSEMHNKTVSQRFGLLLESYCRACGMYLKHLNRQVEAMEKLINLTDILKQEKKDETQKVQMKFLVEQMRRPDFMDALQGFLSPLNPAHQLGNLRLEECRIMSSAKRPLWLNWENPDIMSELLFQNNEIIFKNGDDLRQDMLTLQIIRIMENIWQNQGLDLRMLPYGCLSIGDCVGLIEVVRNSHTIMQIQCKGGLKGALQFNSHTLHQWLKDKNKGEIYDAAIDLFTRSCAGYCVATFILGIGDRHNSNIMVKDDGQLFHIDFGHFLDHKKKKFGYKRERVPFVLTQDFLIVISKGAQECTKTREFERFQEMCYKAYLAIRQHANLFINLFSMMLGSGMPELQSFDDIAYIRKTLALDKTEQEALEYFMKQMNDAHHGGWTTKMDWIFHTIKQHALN

As for `N[C@@H]1CCN(C(=O)c2ccc(NC(=O)Nc3ccc(-c4nc(N5CCOCC5)c5ccc(-c6cncnc6)cc5n4)cc3F)cc2)C1`, the IC50 was under 50 nM.

On to `CN(C)CCN(C)C(=O)c1ccc(NC(=O)Nc2ccc(-c3nc(N4CCOCC4)c4ccc(-c5cncnc5)cc4n3)cc2)cc1`, for which the IC50 is under 50 nM. In the case of `CN(C)C(=O)c1ccc(NC(=O)Nc2ccc(-c3nc(N4CCOCC4)c4ncc(-c5cccnc5)cc4n3)cc2F)cc1` it was under 50 nM. As to `CN(C)C(=O)c1ccc(NC(=O)Nc2ccc(-c3nc(N4CCOCC4)c4ccc(-c5cccnc5F)cc4n3)cc2F)cc1`, the IC50 was under 50 nM. The same measure for `Cc1ccc(-c2ccc3c(N4CCOCC4)nc(-c4ccc(NC(=O)Nc5ccc(C(=O)NCCN(C)C)cc5)cc4)nc3c2)o1`: 50 to 200 nM; for `CC(O)c1ccc(-c2ccc3c(N4CCOCC4)nc(-c4ccc(NC(=O)Nc5ccc(C(=O)N(C)C)cc5)c(F)c4)nc3c2)o1` (stereo unspecified): under 50 nM. In the case of `CC(=O)Nc1ccc(NC(=O)Nc2ccc(-c3nc(N4CCOCC4)c4ncc(-c5cnn(C)c5)cc4n3)cc2)cc1` it was under 50 nM.

For `CN(C)C(=O)c1ccc(NC(=O)Nc2ccc(-c3nc(N4CCOCC4)c4ccc(-c5cccc(S(C)(=O)=O)c5)cc4n3)c(F)c2)cc1`, the IC50 was under 50 nM. In the case of `COc1ncc(-c2ccc3c(N4CCOCC4)nc(-c4ccc(NC(=O)Nc5ccc(C(=O)N(C)C)cc5)cc4F)nc3c2)cn1` it was under 50 nM.

`COc1ncc(-c2ccc3c(N4CCOCC4)nc(-c4ccc(NC(=O)Nc5ccc(C(=O)N(C)C)cc5)c(F)c4)nc3c2)cn1` came in with an IC50 of 50 to 200 nM. The same measure for `CN(C)C(=O)c1ccc(NC(=O)Nc2ccc(-c3nc(N4CCOCC4)c4ncc(-c5cncnc5)cc4n3)c(F)c2)cc1`: under 50 nM. On to `CN(C)C1CCN(C(=O)c2ccc(NC(=O)Nc3ccc(-c4nc(N5CCOCC5)c5ccc(C(C)(C)O)cc5n4)cc3)cc2)CC1`, for which the IC50 was under 50 nM. In the case of `CC(=O)Nc1cccc(-c2ccc3c(N4CCOCC4)nc(-c4ccc(NC(=O)Nc5ccc(C(=O)N(C)C)cc5)cc4)nc3c2)c1` it was under 50 nM; in that of `CN(C)C(=O)c1ccc(NC(=O)Nc2ccc(-c3nc(N4CCOCC4)c4ncc(-c5cccnc5F)cc4n3)cc2)c(F)c1`, under 50 nM; in that of `CN(C)C(=O)c1ccc(NC(=O)Nc2ccc(-c3nc(N4CCOCC4)c4cc(F)c(-c5ccco5)cc4n3)cc2)cc1`, 50 to 200 nM.

`CN(C)C(=O)c1ccc(NC(=O)Nc2ccc(-c3nc(N4CCOCC4)c4ccc(-c5cnc(O)nc5)cc4n3)cc2)cc1` had an IC50 of under 50 nM. Regarding `CN(C)[C@H]1CCN(C(=O)c2ccc(NC(=O)Nc3ccc(-c4nc(N5CCOCC5)c5ncc(-c6cccnc6F)cc5n4)cc3F)cc2)C1`, the IC50 was under 50 nM. In the case of `CN(C)CCN(C)C(=O)c1ccc(NC(=O)Nc2ccc(-c3nc(N4CCOCC4)c4ccc(-c5ccco5)cc4n3)cc2)cc1` it was under 50 nM; in that of `CN(C)C(=O)c1ccc(NC(=O)Nc2ccc(-c3nc(N4CCOCC4)c4ncc(-c5cnn(C)c5)cc4n3)cc2F)cn1`, under 50 nM; in that of `CC(=O)Nc1ccc(NC(=O)Nc2ccc(-c3nc(N4CCOCC4)c4ccc(-c5cncnc5)cc4n3)cc2)cc1`, under 50 nM. The same measure for `CC(=O)Nc1ccc(NC(=O)Nc2ccc(-c3nc(N4CCOCC4)c4ncc(-c5cccnc5F)cc4n3)cc2)cc1`: under 50 nM; for `CN(C)C(=O)c1ccc(NC(=O)Nc2ccc(-c3nc(N4CCOCC4)c4cc(F)c(-c5cccc(S(C)(=O)=O)c5)cc4n3)cc2)cc1`: under 50 nM. As to `Cc1ncccc1-c1ccc2c(N3CCOCC3)nc(-c3ccc(NC(=O)Nc4ccc(C(=O)N(C)C)cc4F)cc3)nc2c1`, the IC50 is under 50 nM. Consider `CN(C)C(=O)c1ccc(NC(=O)Nc2ccc(-c3nc(N4CCOCC4)c4ncc(-c5cnc(N(C)C)nc5)cc4n3)cc2)cc1`, for which the IC50 is under 50 nM. The same measure for `CN(C)C(=O)c1ccc(NC(=O)Nc2ccc(-c3nc(N4CCOCC4)c4ccc(-c5ccsc5)cc4n3)cc2)cc1`: under 50 nM.

Take `CN(C)C(=O)c1ccc(NC(=O)Nc2ccc(-c3nc(N4CCOCC4)c4ccc(-c5cnc(N(C)C)nc5)cc4n3)cc2F)cc1`: the IC50 was 50 to 200 nM. In the case of `CNC(=O)c1ccc(NC(=O)Nc2ccc(-c3nc(N4CCOCC4)c4ccc(-c5ccco5)cc4n3)cc2)cc1`, the IC50 was under 50 nM. In turn, `COc1ncc(-c2cnc3c(N4CCOCC4)nc(-c4ccc(NC(=O)Nc5ccc(C(=O)N(C)C)cc5)cc4)nc3c2)cn1` yielded an IC50 of under 50 nM. Consider `CN(C)C(=O)c1ccc(NC(=O)Nc2ccc(-c3nc(N4CCOCC4)c4ccc(-c5cnc6ccccc6c5)cc4n3)cc2)cc1`, for which the IC50 is under 50 nM. In the case of `Cc1ccc(-c2cnc3c(N4CCOCC4)nc(-c4ccc(NC(=O)Nc5ccc(C(=O)N(C)C)cc5)cc4)nc3c2)o1` it was under 50 nM; in that of `Cc1noc(C)c1-c1ccc2c(N3CCOCC3)nc(-c3ccc(NC(=O)Nc4ccc(C(=O)N(C)C)c(F)c4)cc3)nc2c1`, 50 to 200 nM; in that of `CN(C)C(=O)c1ccc(NC(=O)Nc2ccc(-c3nc(N4CCOCC4)c4ncc(-c5cnn(C)c5)cc4n3)cc2)cc1F`, under 50 nM. `CN(C)C(=O)c1ccc(NC(=O)Nc2ccc(-c3nc(N4CCOCC4)c4ncc(-c5cncnc5)cc4n3)cc2)c(F)c1` showed an IC50 of under 50 nM. The molecule `CN(C)C(=O)c1ccc(NC(=O)Nc2ccc(-c3nc(N4CCOCC4)c4ccc(-c5cccnc5F)cc4n3)cc2)cc1` returned an IC50 of 50 to 200 nM.

For the molecule `CN(C)C(=O)c1ccc(NC(=O)Nc2ccc(-c3nc(N4CCOCC4)c4ccc(-c5cnn(C)c5)cc4n3)c(F)c2)cc1`, the IC50 was 50 to 200 nM. In the case of `CC(=O)Nc1cncc(-c2ccc3c(N4CCOCC4)nc(-c4ccc(NC(=O)Nc5ccc(C(=O)N(C)C)cc5)cc4)nc3c2)c1` it was under 50 nM; in that of `Cc1noc(C)c1-c1cnc2c(N3CCOCC3)nc(-c3ccc(NC(=O)Nc4ccc(C(=O)N(C)C)cc4)c(F)c3)nc2c1`, under 50 nM; in that of `CN(C)CCNC(=O)c1ccc(-c2ccc3c(N4CCOCC4)nc(-c4ccc(NC(=O)Nc5ccc(C(=O)N(C)C)cc5)cc4)nc3c2)o1`, 50 to 200 nM.

For `CN(C)C(=O)c1ccc(NC(=O)Nc2ccc(-c3nc(N4CCOCC4)c4ccc(-c5cccc(F)c5)cc4n3)cc2)cc1`, the IC50 was in the range of 50 to 200 nM. In the case of `CC(O)c1ccc(-c2cnc3c(N4CCOCC4)nc(-c4ccc(NC(=O)Nc5ccc(C(=O)N(C)C)cc5)cc4)nc3c2)o1` (stereo unspecified) it was under 50 nM; in that of `CN(C)C(=O)c1ccc(NC(=O)Nc2ccc(-c3nc(N4CCOCC4)c4ncc(-c5cccnc5)cc4n3)c(F)c2)cc1`, under 50 nM. In turn, `CN(C)C(=O)c1ccc(NC(=O)Nc2ccc(-c3nc(N4CCOCC4)c4ccc(-c5ccncc5)cc4n3)cc2F)cc1` registered an IC50 of 50 to 200 nM. The same measure for `CNC(=O)c1ccc(NC(=O)Nc2ccc(-c3nc(N4CCOCC4)c4ccc(-c5cncnc5)cc4n3)cc2F)cc1`: 50 to 200 nM; for `COc1ccc(-c2ccc3c(N4CCOCC4)nc(-c4ccc(NC(=O)Nc5ccc(C(=O)N(C)C)cc5)cc4)nc3c2)cn1`: under 50 nM; for `Cc1ncccc1-c1ccc2c(N3CCOCC3)nc(-c3ccc(NC(=O)Nc4ccc(C(=O)N(C)C)cc4)cc3F)nc2c1`: under 50 nM. In turn, `Cc1ccc(-c2cc3nc(-c4ccc(NC(=O)Nc5ccc(C(=O)N(C)C)cc5)cc4)nc(N4CCOCC4)c3cc2F)o1` returned an IC50 of 50 to 200 nM.

Regarding `COc1ncc(-c2ccc3c(N4CCOCC4)nc(-c4ccc(NC(=O)Nc5ccc(C(=O)N(C)C)cc5F)cc4)nc3c2)cn1`, the concentration for half-maximal inhibition (IC50) is 50 to 200 nM. As for `CN(C)C(=O)c1ccc(NC(=O)Nc2ccc(-c3nc(N4CCOCC4)c4ccc(-c5cccc(CO)c5)cc4n3)cc2)cc1`, the half-maximal inhibitory concentration (IC50) was under 50 nM.

Molecule `CN(C)C(=O)c1ccc(NC(=O)Nc2ccc(-c3nc(N4CCOCC4)c4ccc(-c5cccc(N(C)C)c5)cc4n3)cc2)cc1` returned an IC50 of under 50 nM. In the case of `Cc1noc(C)c1-c1ccc2c(N3CCOCC3)nc(-c3ccc(NC(=O)Nc4ccc(C(=O)N(C)C)cc4)cc3)nc2c1` it was under 50 nM; in that of `CN1CCN(C(=O)c2ccc(-c3ccc4c(N5CCOCC5)nc(-c5ccc(NC(=O)Nc6ccc(C(=O)N(C)C)cc6)cc5)nc4c3)o2)CC1`, under 50 nM.

Turning to `CN(C)C(=O)c1ccc(NC(=O)Nc2ccc(-c3nc(N4CCOCC4)c4ccc(-c5cccc(S(C)(=O)=O)c5)cc4n3)cc2)cc1`, the IC50 was under 50 nM. Consider `CC1CN(c2nc(-c3ccc(NC(=O)Nc4ccc(C(=O)N(C)C)cc4)c(F)c3)nc3cc(-c4cncnc4)ccc23)CCO1` (stereo unspecified), for which the IC50 lay in the range of 50 to 200 nM. Consider `Cc1noc(C)c1-c1ccc2c(N3CCOCC3)nc(-c3ccc(NC(=O)Nc4ccc(C(=O)N(C)C)cc4)c(F)c3)nc2c1`, for which the IC50 is under 50 nM. The same measure for `CN(C)C(=O)c1ccc(NC(=O)Nc2ccc(-c3nc(N4CCOCC4)c4ncc(-c5cccnc5F)cc4n3)c(F)c2)cc1`: under 50 nM; for `CN(C)[C@H]1CCN(C(=O)c2ccc(NC(=O)Nc3ccc(-c4nc(N5CCOCC5)c5cc(F)c(-c6cccnc6)cc5n4)cc3)cc2)C1`: under 50 nM; for `CN(C)C(=O)c1ccc(NC(=O)Nc2ccc(-c3nc(N4CCOCC4)c4ncc(-c5ccnnc5)cc4n3)cc2)cc1`: under 50 nM.

`CN(C)C(=O)c1ccc(NC(=O)Nc2ccc(-c3nc(N4CCOCC4)c4ccccc4n3)cc2)cc1`: the IC50 was 50 to 200 nM. `CN(C)C(=O)c1ccc(NC(=O)Nc2ccc(-c3nc(N4CCOCC4)c4ccc(C(C)(C)O)cc4n3)cc2)cc1` showed an IC50 of under 50 nM. In the case of `Cc1ccc(-c2ccc3c(N4CCOC(C)C4)nc(-c4ccc(NC(=O)Nc5ccc(C(=O)N(C)C)cc5)cc4)nc3c2)o1` (stereo unspecified) it was 50 to 200 nM; in that of `COc1ncc(-c2ccc3c(N4CCOCC4)nc(-c4ccc(NC(=O)Nc5ccc(C(=O)N(C)C)c(F)c5)cc4)nc3c2)cn1`, under 50 nM. In the case of `CN(C)C(=O)c1ccc(NC(=O)Nc2ccc(-c3nc(N4CCOCC4)c4ccc(-c5ccc(C(C)(C)O)o5)cc4n3)cc2)cc1` it was under 50 nM; in that of `COc1ccc2c(N3CCOCC3)nc(-c3ccc(NC(=O)Nc4ccc(C(=O)N(C)C)cc4)c(F)c3)nc2c1`, 50 to 200 nM; in that of `CN(C)Cc1ccc(-c2ccc3c(N4CCOCC4)nc(-c4ccc(NC(=O)Nc5ccc(C(=O)N(C)C)cc5)cc4)nc3c2)o1`, 50 to 200 nM. In the case of `CN(C)C(=O)c1ccc(NC(=O)Nc2ccc(-c3nc(N4CCOCC4)c4ccc(-c5ccc(CO)o5)cc4n3)cc2)c(F)c1` it was under 50 nM; in that of `COc1ncc(-c2ccc3c(N4CCOCC4)nc(-c4ccc(NC(=O)Nc5ccc(C(=O)N(C)C)cc5)nc4)nc3c2)cn1`, under 50 nM.
